The values that follow come from US20240342179A1, “TREATMENT OF CANCERS OR NEOPLASMS BY INHIBITING KIF15” (University of Kansas, priority 2023, published 2024).

The target in one assay is GST-KIF15 1149-1388 (Homo sapiens (Human), UniProt Q9NS87). Put plainly: NMR (STD-NMR / WaterLOGSY) versus GST-KIF15. The class given is binding. The settings on record: Hit / No. The protocol: WaterLOGSY NMR Spectra of Compounds A1 and B2 are provided.
Various cocktails of compounds were prepared to test for interactions. 100 μL DMSO-d6 was added to 3 mg of material. 26 cocktails of 6 compounds were prepared and 3 cocktails of 7 compounds were prepared. Then, 3 μM protein is added to 300 μM of the cocktails in 10% D2O buffer. Concentration of compounds is 10 mM each.
The 166 compound hit samples were further characterized for KIF15 or TPX2 binding using biophysical saturation transfer difference nuclear magnetic resonance (STD-NMR) and WaterLOGSY assays. The 166 compound samples were screened by STD-NMR for evidence of binding to GST-KIF15 or His-TPX2. In our assessment, no hits bound to His-TPX2. The protocol counter-screened potential hits against a His-GST peptide^99 and for aggregation using protein-free controls. Ultimately, three compound hits representing two compound chemotypes were validated to bind KIF15 by WaterLOGSY (FIGS. 4A-4B).

For assay [1], the target named is KIF15/TPX2 protein-protein interaction (GST-KIF15 amino acids 1149-1388, His-TPX2 amino acids 346-747) (Homo sapiens (Human), UniProt Q9NS87). Nature of the assay: KIF15/TPX2 AlphaScreen assay. It is filed as binding. The protocol: The protocol designed peptides corresponding to the appropriate domains of KIF15 (amino acids 1149-1388, GST-tagged) and TPX2 (amino acids 346-747, His-tagged), for use in the AlphaScreen assay.
Chain of KIF15/TPX2 protein-protein interaction (GST-KIF15 amino acids 1149-1388, His-TPX2 amino acids 346-747) (Q9NS87 1149-1388): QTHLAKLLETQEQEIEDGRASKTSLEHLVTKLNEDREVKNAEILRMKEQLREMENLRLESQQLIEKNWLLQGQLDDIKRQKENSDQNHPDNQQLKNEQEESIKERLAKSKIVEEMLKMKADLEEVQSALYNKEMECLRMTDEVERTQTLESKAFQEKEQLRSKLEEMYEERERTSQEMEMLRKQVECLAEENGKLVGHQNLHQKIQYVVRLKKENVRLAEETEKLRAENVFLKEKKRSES
Next, the protocol screened a total of 191,852 compounds from the KU-HTS library. Analysis identified 584 hits that inhibited the primary AlphaScreen TPX2-KIF15 interaction to greater than three standard deviations plus the plate inhibition-median. The 584 hits were tested for assay interference in the AlphaScreen counter-screen using His-GST fusion protein. […] Of the 467 hits, 399 inhibited the TPX2-KIF15 interaction in a dose-response manner. Refinement was conducted until identifying the compounds provided herein.
To identify compounds that inhibit KIF15-mediated bipolar spindle formation, a process that is dependent on KIF15 binding to TPX2, the protocol designed a high-throughput screen using AlphaScreen Technology. Previous studies predicted that KIF15-TPX2 binding is mediated through a C-terminal coiled-coil domain on KIF15 (amino acids 1149-1388; amino acids 1359-1380) that binds the C-terminal region of TPX2 (amino acids 475-715; amino acids 680-747)^50, 52, 57, 58. Based on these observations, the protocol designed peptides corresponding to the appropriate domains of TPX2 (amino acids 346-747, His-tagged), and KIF15 (amino acids 1149-1388, GST-tagged) for use in the AlphaScreen assay.
Next, the protocol screened a total of 191,852 compounds from the KU-HTS small-molecule compound collection. The protocol identified 584 hits that inhibited the primary AlphaScreen TPX2-KIF15 interaction to greater than three standard deviations plus the plate inhibition-median. The 584 hits were tested for assay interference in the AlphaScreen assay counter-screen using His-GST fusion protein eliminating 117 compounds^99. […] Of the 467 hits, 399 inhibited the KIF15-TPX2 interaction in a concentration-dependent manner (FIGS. 3A-3D), rendering them candidates for follow-on validation in orthogonal and counter-screen assays. Informed by computational and medicinal chemistry assessment^100, the protocol selected a representative subset of approximately 200 of the 399 compound hits for additional characterization. Samples for 177 compounds from the subset of approximately 200 representative compounds were available for purchase. Samples of these 177 compounds were purchased for structure verification by NMR and further characterization. There was enough compound sample procured to complete follow-on screening for 166 of the 177 compounds.
In general terms: In Alpha technology, singlet oxygen from a donor bead excites a nearby acceptor bead.

Chain of GST-KIF15 1149-1388 (Q9NS87 1149-1388): as above

As to `CCCN1CCN(c2ncc3c(n2)CCN(Cc2ccc(Br)cc2)C3)CC1` [Compound 6, 6-(4-bromobenzyl)-2-(4-propylpiperazin-1-yl)-5,6,7,8-tetrahydropyrido[4,3-d]pyrimidine], the “NMR Versus GST-KIF15” value at GST-KIF15 1149-1388 is “Hit”. The values for the 50% inhibitory concentration (IC50) (in “TruHits counter-screen”; in assay [1]) were 628 ± 35 µM and 13.6 ± 1.2 µM, respectively.

Regarding `CCCN1CCN(c2ncc3c(n2)CCN(Cc2ccc(Br)s2)C3)CC1` [Compound 4, 6-((5-bromothiophen-2-yl)methyl)-2-(4-propylpiperazin-1-yl)-5,6,7,8-tetrahydropyrido[4,3-d]pyrimidine], at GST-KIF15 1149-1388, the “NMR Versus GST-KIF15” value was “Hit”. The IC50 in the assay “TruHits counter-screen” is 312 ± 79 µM; in assay [1], 23 ± 1.6 µM.

Turning to `CCN1CCN(c2ncc3c(n2)CCN(Cc2cccc(OC)c2OC)C3)CC1` [Compound 17, 6-(2,3-dimethoxybenzyl)-2-(4-ethylpiperazin-1-yl)-5,6,7,8-tetrahydropyrido[4,3-d]pyrimidine], at GST-KIF15 1149-1388, the “NMR Versus GST-KIF15” value was “No”.

As for `CCCN1CCN(c2ncc3c(n2)CCN(Cc2cc(Br)cs2)C3)CC1` [Compound 15, 6-((4-bromothiophen-2-yl)methyl)-2-(4-propylpiperazin-1-yl)-5,6,7,8-tetrahydropyrido[4,3-d]pyrimidine], the “NMR Versus GST-KIF15” value on GST-KIF15 1149-1388 is given as “Hit”.

`CCOc1cccc(CN2CCc3nc(N4CCN(CC)CC4)ncc3C2)c1` [Compound 20, 6-(3-ethoxybenzyl)-2-(4-ethylpiperazin-1-yl)-5,6,7,8-tetrahydropyrido[4,3-d]pyrimidine]: at GST-KIF15 1149-1388, the “NMR Versus GST-KIF15” value is listed as “No”.

Regarding `CCCN1CCN(c2ncc3c(n2)CCN(Cc2ccc(OCC)c(OCC)c2)C3)CC1` [Compound 3, 6-(3,4-diethoxybenzyl)-2-(4-propylpiperazin-1-yl)-5,6,7,8-tetrahydropyrido[4,3-d]pyrimidine], the “NMR Versus GST-KIF15” value at GST-KIF15 1149-1388 is “No”. The IC50 in the assay “TruHits counter-screen” stood at 510 ± 6 µM; in assay [1] it was 42.2 ± 3.3 µM.

Take `CCCN1CCN(c2ncc3c(n2)CCN(Cc2ccc(OCC)c(OC)c2)C3)CC1` [Compound 13, 6-(4-ethoxy-3-methoxybenzyl)-2-(4-propylpiperazin-1-yl)-5,6,7,8-tetrahydropyrido[4,3-d]pyrimidine]: at GST-KIF15 1149-1388, the “NMR Versus GST-KIF15” value is on record as “No”. Moreover, the IC50 in the assay “TruHits counter-screen” was determined as 664 ± 103 µM; in assay [1], 44.8 ± 0.2 µM.

As for `CCCN1CCN(c2ncc3c(n2)CCN(Cc2cccc(Br)c2)C3)CC1` [Compound 5, 6-(3-bromobenzyl)-2-(4-propylpiperazin-1-yl)-5,6,7,8-tetrahydropyrido[4,3-d]pyrimidine], at GST-KIF15 1149-1388, the “NMR Versus GST-KIF15” value is on record as “Hit”. The IC50 in “TruHits counter-screen” is 287 ± 8 µM; in assay [1], 21 µM.

For the molecule `CCCN1CCN(c2ncc3c(n2)CCN(Cc2ccc(CC)cc2)C3)CC1` [Compound 1, 6-(4-ethylbenzyl)-2-(4-propylpiperazin-1-yl)-5,6,7,8-tetrahydropyrido[4,3-d]pyrimidine], the “NMR Versus GST-KIF15” value on GST-KIF15 1149-1388 was “No”. Moreover, the IC50 in “TruHits counter-screen” worked out at 393 ± 13 µM; in assay [1], 32.2 ± 4.6 µM.

For the molecule `CCN1CCN(c2ncc3c(n2)CCN(Cc2cc(OC)c(OC)cc2OC)C3)CC1` [Compound 8, 2-(4-ethylpiperazin-1-yl)-6-(2,4,5-trimethoxybenzyl)-5,6,7,8-tetrahydropyrido[4,3-d]pyrimidine], at GST-KIF15 1149-1388, the “NMR Versus GST-KIF15” value was “No”. Besides, the IC50 in the assay “TruHits counter-screen” came to 120 ± 5.2 µM; in assay [1] it was 2.4 ± 0.1 µM.

Turning to `CCN1CCN(c2ncc3c(n2)CCN(Cc2ccc(OC(C)C)c(OC)c2)C3)CC1` [Compound 19, 2-(4-ethylpiperazin-1-yl)-6-(4-isopropoxy-3-methoxybenzyl)-5,6,7,8-tetrahydropyrido[4,3-d]pyrimidine], the “NMR Versus GST-KIF15” value at GST-KIF15 1149-1388 is on record as “No”.

In the case of `CCN1CCN(c2ncc3c(n2)CCN(Cc2ccc(OC)c(OC)c2OC)C3)CC1` [Compound 9, 2-(4-ethylpiperazin-1-yl)-6-(2,3,4-trimethoxybenzyl)-5,6,7,8-tetrahydropyrido[4,3-d]pyrimidine], at GST-KIF15 1149-1388, the “NMR Versus GST-KIF15” value is listed as “No”. For the same molecule, the results for the IC50 (in the assay “TruHits counter-screen”; in assay [1]) were 196 ± 0.1 µM and 1.7 ± 0.1 µM, respectively.

Consider `CCOc1ccc(CN2CCc3nc(N4CCN(CC)CC4)ncc3C2)cc1OCC` [Compound 7, 6-(3,4-diethoxybenzyl)-2-(4-ethylpiperazin-1-yl)-5,6,7,8-tetrahydropyrido[4,3-d]pyrimidine], for which the “NMR Versus GST-KIF15” value at GST-KIF15 1149-1388 is “No”. Further, the IC50 turned out to be 176 ± 9 µM in the assay “TruHits counter-screen” and 2.8 ± 0.3 µM in assay [1].

For `CCN1CCN(c2ncc3c(n2)CCN(Cc2cc(OC)c(OC)c(OC)c2)C3)CC1` [Compound 11, 2-(4-ethylpiperazin-1-yl)-6-(3,4,5-trimethoxybenzyl)-5,6,7,8-tetrahydropyrido[4,3-d]pyrimidine], the “NMR Versus GST-KIF15” value on GST-KIF15 1149-1388 was “No”. The values for the half-inhibitory concentration (IC50) (in the assay “TruHits counter-screen”; in assay [1]) were 556 ± 38 µM and 2.5 ± 0.8 µM, respectively.

Regarding `CCN1CCN(c2ncc3c(n2)CCN(Cc2cc(Br)cs2)C3)CC1` [Compound 18, 6-((4-bromothiophen-2-yl)methyl)-2-(4-ethylpiperazin-1-yl)-5,6,7,8-tetrahydropyrido[4,3-d]pyrimidine], the “NMR Versus GST-KIF15” value on GST-KIF15 1149-1388 is listed as “Hit”.

Take `CCN1CCN(c2ncc3c(n2)CCN(Cc2ccc(F)cc2F)C3)CC1` [Compound 16, 6-(2,4-difluorobenzyl)-2-(4-ethylpiperazin-1-yl)-5,6,7,8-tetrahydropyrido[4,3-d]pyrimidine]: the “NMR Versus GST-KIF15” value on GST-KIF15 1149-1388 is on record as “No”.

On to `CCOc1ccc(CN2CCc3nc(N4CCN(CC)CC4)ncc3C2)cc1OC` [Compound 12, 6-(4-ethoxy-3-methoxybenzyl)-2-(4-ethylpiperazin-1-yl)-5,6,7,8-tetrahydropyrido[4,3-d]pyrimidine], for which the “NMR Versus GST-KIF15” value at GST-KIF15 1149-1388 is recorded as “No”. For the same molecule, the IC50 is 305 ± 13 µM in “TruHits counter-screen” and 3.5 ± 0.5 µM in assay [1].

In the case of `CCCN1CCN(c2ncc3c(n2)CCN(Cc2cccc(F)c2F)C3)CC1` [Compound 2, 6-(2,3-difluorobenzyl)-2-(4-propylpiperazin-1-yl)-5,6,7,8-tetrahydropyrido[4,3-d]pyrimidine], the “NMR Versus GST-KIF15” value at GST-KIF15 1149-1388 is listed as “No”. The IC50 was found to be 428 ± 38 µM in “TruHits counter-screen” and 27.8 ± 4.7 µM in assay [1].

What is called IC50 is the concentration that gives 50% inhibition. Low values mean inhibition by little substance, high ones a need for much substance.
